Here are results for 3 molecules from patent US20120156699A1, “Pathogenic TH17 Cells; related reagents and methods” (Schering Corporation, priority 2007, published 2012).

One test has as its system IL-1R1. The test can be described thus: IL-1R1 gene expression in response to PGE2. Type of test: cell-based, human. The note with it: data not shown. As to the method:
(§1) Real-time quantitative PCR is performed as described previously (Wilson et al. (2007), supra).
Further experiments are performed to determine the effect of PGE2, or agonists thereof, on the expression of IL-23R in naïve human CD4^+ T cells in culture. […] In addition, IL-1R1 gene expression is increased in response to PGE2 (data not shown).

In the next test the test system is CCR6. Kind of test: CCR6 expression in naïve human CD4+ T cells, flow cytometry. The settings on record: PGE2 added to IL-1β and IL-23; FIG. 6A. It is filed as cell-based. As to the method:
FIGS. 6A, 6B and 6C present results obtained with naïve human CD4^+ T cells cultured as described with reference to FIGS. 5A-5C. […] Results represent mean±s.e.m. of nine independent experiments. For data presented in FIGS. 6B and 6C, naïve T cells are cultured in the presence of IL-1β, IL-23, and PGE2. After reactivation, CD4^+ CCR6^+ and CD4^+CCR6^− T cells are sorted and cultured for seven days in the presence of IL-2. […] Results in each of FIGS. 6B and 6C reflect the results of four independent experiments.
Methods used in this example are generally as described at Wilson et al. (2007) Nature Immunology 8:950. More specifically, cell culture is performed as follows. Naïve CD4^+ CD45RO^− T cells are isolated and cultured as described previously (Wilson et al. (2007), supra). Memory CD4^+ CD45RA^− T cells are isolated using the memory T cell isolation kit, human (Miltenyi, Auburn, Calif.), according to the manufacturer's instructions. […]
For analysis of cell surface proteins, cells are stained with anti-CD4, anti-CD3, anti-CD45RA, anti-CCR6 (BD Biosciences), and/or anti-IL-23R (R&D Systems) antibodies. Data are acquired on a LSR II cytometer and analyzed with FlowJo software (Tree Star, Ashland, Oreg.). […]
On the technique in general: In flow cytometry, cells or beads pass a laser one at a time.

Test [1] has as its system human memory CD4+ T cells. Kind of test: Cytokine production and gene expression in activated human memory CD4+ T cells. It is filed as cell-based. The protocol:
FIGS. 7A and 7B present results obtained with human memory CD4^+ T cells activated and cultured for three days in the presence of IL-23, IL-1β, and/or PGE2. […] Results from nine independent donors are shown. […] Results from four different donors are shown. Horizontal lines represent medians.
(§2) Methods used in this example are generally as described at Wilson et al. (2007) Nature Immunology 8:950. More specifically, cell culture is performed as follows. Naïve CD4^+ CD45RO^− T cells are isolated and cultured as described previously (Wilson et al. (2007), supra). Memory CD4^+ CD45RA^− T cells are isolated using the memory T cell isolation kit, human (Miltenyi, Auburn, Calif.), according to the manufacturer's instructions. Where indicated, 50 ng/ml hIL-23, 50 ng/ml hIL-1β (R&D Systems, Minneapolis, Minn.), 10 μM PGE2 (Sigma, St. Louis, Mo.), 10 μM butaprost (EP2 selective agonist), 35 μM misoprostol (EP4, EP3>EP1>EP2 agonist), and/or 10 μM sulprostone (EP1, EP3 agonist, Cayman Chemical, Ann Arbor, Mich.) are added.
ELISA and electrochemiluminescence assays are performed as described previously (Wilson et al. (2007), supra). IL-10 ELISA is performed using a kit from R&D Systems.
as §1
Intervention with therapeutic agents, such as antagonists of the inflammatory cytokines and non-cytokine immunomodulators, might therefore be expected to be beneficial when administered both systemically and also when administered locally at (or near) the site of inflammation.

A further test deals with IL-23R. Kind of test: IL-23R expression in naïve human CD4+ T cells, flow cytometry. The note with it: 10 μM PGE2, 10 μM butaprost, 35 μM misoprostol, 10 μM sulprostone; restimulated 48 hours; FIGS. 4A, 4B. It is filed as cell-based. The protocol: FIGS. 4A and 4B present results obtained in experiments in which naïve human CD4^+ T cells are activated with T cell activation beads and cultured in the presence or absence of PGE2 or specific EP receptors agonists.
as §2
For analysis of cell surface proteins, cells are stained with anti-CD4, anti-CD3, anti-CD45RA, anti-CCR6 (BD Biosciences), and/or anti-IL-23R (R&D Systems) antibodies. Data are acquired on a LSR II cytometer and analyzed with FlowJo software (Tree Star, Ashland, Oreg.).
Further experiments are performed to determine the effect of PGE2, or agonists thereof, on the expression of IL-23R in naïve human CD4^+ T cells in culture. […]

For a further test, the system named is naïve human CD4+ T cells. Kind of test: Cytokine expression by naïve human CD4+ T cells cultured with IL-1β and IL-23, with or without PGE2 or EP receptor agonists. It is filed as cell-based. The settings on record: together with IL-1β and IL-23. The protocol:
FIGS. 5A, 5B and 5C present results obtained in naïve human CD4^+ T cells activated with T cell activation beads and cultured in the presence or absence of IL-23 and IL-1β, with or without PGE2 or the EP receptors agonists butaprost, misoprostol, and sulprostone. Data in FIGS. 5A-5C reflect IL-17A, IFN-γ and IL-10 production in cell-free supernatants of T cells restimulated for 48 hours, respectively. Results in each figure are representative of two independent experiments.
as §2
ELISA and electrochemiluminescence assays are performed as described previously (Wilson et al. (2007), supra). IL-10 ELISA is performed using a kit from R&D Systems. […]

The next test relates to CD161+ Thmem cells. The test can be described thus: IL-17 production by lamina propria CD161+ Thmem cells cultured with IL-23. It is filed as cell-based, human. The note with it: CD161+ Thmem cells cultured in the presence of IL-23. As to the method:
(§3) Colon and peripheral blood (PB) samples are obtained from Crohn's Disease patients. Lamina propria mononuclear cells (LPMC) are prepared from colon samples by dissociation of the epithelial layer of the mucosa, collagenase digestion of the lamina propria, and density gradient centrifugation. Peripheral blood mononuclear cells (PBMC) are isolated from PB by density gradient centrifugation and lysis of red blood cells.
Colon samples from CD patients contain approximately 20-fold more CD161^+ CD4^+ memory T cells, as determined by flow cytometry, than colon samples from normal subjects. FACS® flow cytometry purified lamina propria CD161^+ Thmem cells are found to produce 4 to 6-fold more IL-17 than CD161^− Thmem cells (as measured by ELISA) in both CD and normal samples.

A further test relates to PBMC CD161+ Thmem cells. Kind of test: IL-17 production by PBMC CD161+ Thmem cells from CD patients cultured with IL-23. Type of test: cell-based, human. As to the method:
as §3
This Th17 phenotype is increased in Crohn's disease patients.

[2] abbreviates: memory T cells cultured three days, FIG. 7A.

For the molecule `CCCCC[C@H](O)/C=C/[C@H]1[C@H](O)CC(=O)[C@@H]1C/C=C\CCCC(=O)O` [PGE2, prostaglandin E2], the IL-1R1 gene expression entry in the test with IL-1R1 is on record as “increased”. In addition, in the test with CCR6, the “percentage of naïve human CD4+ T cells expressing CCR6” value is reported as “increase in the percentage”. In test [1] (setting [2]), the IFN-γ levels entry was “does not promote increased levels”, the IL-10 levels entry is reported as “does not promote increased levels” and the IL-17A levels result is on record as “promotes increased levels”. For the same molecule, in test [1] (real-time RT-PCR, FIG. 7B), the ROR-γt expression entry is “promotes increased levels of the IL-17A and expression of ROR-γt”. In addition, the “percentage of IL-23R expressing CD4+ T cells” value with IL-23R is “more than doubles”. The IL-10 expression entry in the test on naïve human CD4+ T cells (FIG. 5C) is recorded as “Downregulation”.

In the case of `CCCC1([C@H](O)C/C=C/[C@H]2[C@H](O)CC(=O)[C@@H]2CCCCCCC(=O)OC)CCC1` [butaprost], in the test on IL-23R, the “percentage of IL-23R expressing CD4+ T cells” value is reported as “more than doubles”. Also, the IL-17 expression entry in the test on naïve human CD4+ T cells (FIG. 5A) is reported as “somewhat greater increase in IL-17 expression than misoprostol”.

B1: IL-23: protein consisting of two polypeptide subunits, p19 and p40 (protein, UniProt Q9NPF7 20-189; P29460 23-328, looked up)
Interleukin-23 subunit alpha: RAVPGGSSPAWTQCQQLSQKLCTLAWSAHPLVGHMDLREEGDEETTNDVPHIQCGDGCDPQGLRDNSQFCLQRIHQGLIFYEKLLGSDIFTGEPSLLPDSPVGQLHASLLGLSQLLQPEGHHWETQQIPSLSPSQPWQRLLLRFKILRSLQAFVAVAARVFAHGAATLSP
Interleukin-12 subunit beta: IWELKKDVYVVELDWYPDAPGEMVVLTCDTPEEDGITWTLDQSSEVLGSGKTLTIQVKEFGDAGQYTCHKGGEVLSHSLLLLHKKEDGIWSTDILKDQKEPKNKTFLRCEAKNYSGRFTCWWLTTISTDLTFSVKSSRGSSDPQGVTCGAATLSAERVRGDNKEYEYSVECQEDSACPAAEESLPIEVMVDAVHKLKYENYTSSFFIRDIIKPDPPKNLQLKPLKNSRQVEVSWEYPDTWSTPHSYFSLTFCVQVQGKSKREKKDRVFTDKTSATVICRKNASISVRAQDRYYSSSWSEWASVPCS
For B1, in the test on CD161+ Thmem cells, the “enhancement of IL-17 production” value is “approximately 3 fold”. For the same molecule, the IL-17 production result in the test on PBMC CD161+ Thmem cells is listed as “increased IL-17 production”.
